In patent US5447925A, “Antibiotic compounds” (Imperial Chemical Industries PLC, priority 1991, dated 1995):
Converted amounts (≈) assume the structure as drawn.

How the values were obtained:
Type in all cases: cell-based
[1] = system: P. aeruginosa PU21 (101028); assay: MIC by agar dilution, P. aeruginosa PU21 (101028); details: Pseudomonas aeruginosa, Diagnostic Sensitivity Test agar, inoculum 10^4 CFU/spot
Description: (§1) The pharmaceutically acceptable carbapenem compounds of the present invention are useful antibacterial agents having a broad spectrum of activity in vitro against standard laboratory microorganisms, both Gram-negative and Gram-positive, which are used to screen for activity against pathogenic bacteria. The antibacterial spectrum and potency of a particular compound may be determined in a standard test system. In particular the carbapenems of the present invention show good stability to beta-lactamases and have particularly high activity in vitro against strains of Pseudomonas aeruginosa and other Gram-negative aerobic bacteria.
(§2) The following results were obtained for representative compounds on a standard in vitro test system using Diagnostic Sensitivity Test agar medium. The antibacterial activity is described in terms of the minimum inhibitory concentration (M1C) determined by the agar-dilution technique with an inoculum size of 10^4 CFU/spot.

[2] = system: Ent. cloacae P99^- (401054); assay: MIC by agar dilution, Ent. cloacae P99^- (401054); details: Enterobacter cloacae
Description: as §1, §2

[3] = system: Serr. marcesens (421003); assay: MIC by agar dilution, Serr. marcesens (421003); details: Diagnostic Sensitivity Test agar, inoculum 10^4 CFU/spot
Description: as §1, §2

[4] = system: Pr. morganii (433001); assay: MIC by agar dilution, Pr. morganii (433001); details: Morganella morganii, Diagnostic Sensitivity Test agar, inoculum 10^4 CFU/spot
Description: as §1, §2

[5] = system: E. coli DCO (341098); assay: MIC by agar dilution, E. coli DCO (341098); details: Escherichia coli, Diagnostic Sensitivity Test agar, inoculum 10^4 CFU/spot
Description: as §1, §2

[6] = system: St. aureus 147N (601052); assay: MIC by agar dilution, St. aureus 147N (601052); details: Staphylococcus aureus, Diagnostic Sensitivity Test agar, inoculum 10^4 CFU/spot
Description: as §1, §2

[7] = system: S. dublin (369001); assay: MIC by agar dilution, S. dublin (369001); details: Salmonella enterica, Diagnostic Sensitivity Test agar, inoculum 10^4 CFU/spot
Description: as §1, §2

[8] = system: Strep. pyogenes (681018); assay: MIC by agar dilution, Strep. pyogenes (681018); details: Streptococcus pyogenes, Diagnostic Sensitivity Test agar, inoculum 10^4 CFU/spot
Description: as §1, §2

[9] = system: P. aeruginosa 18S (101024); assay: MIC by agar dilution, P. aeruginosa 18S (101024); details: Pseudomonas aeruginosa, Diagnostic Sensitivity Test agar, inoculum 10^4 CFU/spot
Description: as §1, §2

[10] = system: P. aeruginosa 18S IMIR (101148); assay: MIC by agar dilution, P. aeruginosa 18S IMIR (101148); details: Pseudomonas aeruginosa
Description: as §1, §2

[11] = system: B. fragilis AMP R (542008); assay: MIC by agar dilution, B. fragilis AMP R (542008); details: Bacteroides fragilis, Diagnostic Sensitivity Test agar, inoculum 10^4 CFU/spot
Description: as §1, §2

## C[C@@H](O)[C@H]1C(=O)N2C(C(=O)O)=C(S[C@@H]3CN[C@H](CNC(=O)c4cc(O)c(O)c(C#N)c4)C3)[C@H](C)[C@H]12 [Example 3, (1R,5R,6S,8R,2'S,4'S)-2-(2-(5-cyano-3,4-dihydroxybenzoylaminomethyl)pyrrolidin-4-ylthio)-6-(1-hydroxyethyl)-1-methyulcarbapenem-3carboxylic acid]
[1]
  MIC: 0.25 µg/mL (≈ 0.497 µM)
[2]
  MIC: 0.03 µg/mL (≈ 0.0597 µM)
[3]
  MIC: 0.25 µg/mL (≈ 0.497 µM)
[4]
  MIC: 0.5 µg/mL (≈ 0.995 µM)
[5]
  MIC: 0.03 µg/mL (≈ 0.0597 µM)
[6]
  MIC: 0.125 µg/mL (≈ 0.249 µM)
[7]
  MIC: 0.06 µg/mL (≈ 0.119 µM)
[8]
  MIC: 0.008 µg/mL (≈ 0.0159 µM)
[9]
  MIC: 0.125 µg/mL (≈ 0.249 µM)
[10]
  MIC: 0.125 µg/mL (≈ 0.249 µM)
[11]
  MIC: 4 µg/mL (≈ 7.96 µM)
